ChEMBL document CHEMBL1201862, “PubChem BioAssay data set” (2004)
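The compound was tested at five concentrations on cells cultured in 96-well plates, with a 48-hour exposure period. Abbreviation: GI50, concentration required for 50% inhibition of growth.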 Activity calls are given as the source filed them. No stated cut-off is given here; in the data, active = GI50 up to about 1.1 µM and inactive = higher.

Key:
Assay in all cases: DTP human tumour cell line panel, 48 h
A549 = system: A549
CCRF-CEM = system: CCRF-CEM
DLD-1 = system: DLD-1
HCT-15 = system: HCT-15
SK-MEL-5 = system: SK-MEL-5
HCT-116 = system: HCT-116
EKVX = system: EKVX
SF-539 = system: SF-539
HT-29 = system: HT-29
SK-MEL-2 = system: SK-MEL-2
UACC-257 = system: UACC-257
SK-OV-3 = system: SK-OV-3
A498 = system: A498
OVCAR-3 = system: OVCAR-3
NCI-H460 = system: NCI-H460
RPMI-8226 = system: RPMI-8226
DU-145 = system: DU-145
NCI/ADR-RES = system: NCI/ADR-RES
Hs-578T = system: Hs-578T
MDA-MB-435 = system: MDA-MB-435

Row | SMILES | GI50 (A549) | GI50 (CCRF-CEM) | GI50 (DLD-1) | GI50 (HCT-15) [µM] | GI50 (SK-MEL-5) | GI50 (HCT-116) | GI50 (EKVX) | GI50 (SF-539) | GI50 (HT-29) | GI50 (SK-MEL-2) | GI50 (UACC-257) | GI50 (SK-OV-3) | GI50 (A498) | GI50 (OVCAR-3) | GI50 (NCI-H460) | GI50 (RPMI-8226) | GI50 (DU-145) | GI50 (NCI/ADR-RES) | GI50 (Hs-578T) | GI50 (MDA-MB-435)
1 | O=C(CCc1nnc(S)[nH]1)NC12CC3CC(CC(C3)C1)C2 | > 100 µM (inactive) | > 100 µM (inactive) | > 100 µM (inactive) | > 100 | > 100 µM (inactive) | > 100 µM (inactive) | > 100 µM (inactive) | > 100 µM (inactive) | > 100 µM (inactive) | > 100 µM (inactive) | > 100 µM (inactive) | > 100 µM (inactive) | > 100 µM (inactive) | > 100 µM (inactive) | > 100 µM (inactive) | – | – | – | – | –
2 | O=CCCCC(Sc1ccccc1)Sc1ccccc1 | 29.6 µM (inactive) | 12 µM (inactive) | 15.3 µM (inactive) | 15.7 | 15.8 µM (inactive) | 12.4 µM (inactive) | 31.1 µM (inactive) | – | – | 20.2 µM (inactive) | 21.1 µM (inactive) | 18.7 µM (inactive) | 38.8 µM (inactive) | 26.2 µM (inactive) | > 10 µM (inactive) | 16 µM (inactive) | – | – | – | –
3 | CC(C)N(O)C(=N)c1ccccc1 | > 100 µM (inactive) | – | > 100 µM (inactive) | – | > 100 µM (inactive) | > 100 µM (inactive) | > 100 µM (inactive) | > 100 µM (inactive) | > 100 µM (inactive) | > 100 µM (inactive) | > 100 µM (inactive) | – | – | – | > 100 µM (inactive) | – | – | – | – | –
4 | CCN(CC)c1ccc(C(=C2C=CC(=[N+](CC)CC)C=C2)c2ccccc2)cc1 | 0.0348 µM (active) | 0.0121 µM (active) | 0.0274 µM (active) | 0.0483 | 0.0166 µM (active) | 0.0324 µM (active) | 0.108 µM (active) | 0.0462 µM (active) | < 0.01 µM (active) | 0.0279 µM (active) | 0.0472 µM (active) | 0.0304 µM (active) | – | – | 0.0231 µM (active) | < 0.01 µM (active) | – | – | – | –
5 | COc1ccc(/C=N/N=C(\N)NO)cc1F | 14.3 µM (inactive) | 33.7 µM (inactive) | 53.7 µM (inactive) | 18.6 | 5.02 µM (inactive) | 27 µM (inactive) | 8.13 µM (inactive) | 21.9 µM (inactive) | 12.9 µM (inactive) | 13.3 µM (inactive) | 46.6 µM (inactive) | 24.5 µM (inactive) | – | 53 µM (inactive) | 11.9 µM (inactive) | 28.4 µM (inactive) | – | – | – | –
6 | CN(C)C(=N/O)/C(=N\O)N(C)C | > 100 µM (inactive) | > 100 µM (inactive) | > 100 µM (inactive) | > 100 | – | > 100 µM (inactive) | > 100 µM (inactive) | > 100 µM (inactive) | > 100 µM (inactive) | > 100 µM (inactive) | > 100 µM (inactive) | > 100 µM (inactive) | > 100 µM (inactive) | – | > 100 µM (inactive) | > 100 µM (inactive) | – | – | – | –
7 | O=c1c2cc(Br)ccc2[nH]c(=S)n1-c1ccc(Br)cc1 | > 100 µM (inactive) | – | > 100 µM (inactive) | > 100 | – | 89.7 µM (inactive) | > 100 µM (inactive) | 97.1 µM (inactive) | > 100 µM (inactive) | 87.7 µM (inactive) | > 100 µM (inactive) | – | > 100 µM (inactive) | 52.4 µM (inactive) | 82.8 µM (inactive) | > 100 µM (inactive) | – | – | – | –
8 | O=C[C@]12CC=C3OC4OC5(CCCCC5)OC4[C@H]3[C@H]1C(=O)C=CC2=O (some centres not stated) | 11.6 µM (inactive) | 2.44 µM (inactive) | 17.3 µM (inactive) | 18.7 | 17.7 µM (inactive) | 19.9 µM (inactive) | 16.1 µM (inactive) | 3.55 µM (inactive) | 40.2 µM (inactive) | 33.7 µM (inactive) | 21.1 µM (inactive) | 45.8 µM (inactive) | > 100 µM (inactive) | – | 23.9 µM (inactive) | – | – | – | – | –
9 | O=C1c2ccccc2C(=O)c2c1oc(=O)c1ccccc21 | 7.46 µM (inactive) | 1.93 µM (inactive) | – | 3.26 | 1.29 µM (inactive) | 1.03 µM (active) | 5.77 µM (inactive) | 10.7 µM (inactive) | 1.4 µM (inactive) | 4.84 µM (inactive) | 3.22 µM (inactive) | 9.25 µM (inactive) | 9.82 µM (inactive) | 0.698 µM (active) | 4.38 µM (inactive) | 3.63 µM (inactive) | 5.46 µM (inactive) | 1.94 µM (inactive) | 6.43 µM (inactive) | 1.06 µM (active)
10 | CC(=O)CC(=O)N1CCOC1=O | > 10 µM (inactive) | > 10 µM (inactive) | – | > 10 | > 10 µM (inactive) | > 10 µM (inactive) | > 10 µM (inactive) | > 10 µM (inactive) | > 10 µM (inactive) | > 10 µM (inactive) | > 10 µM (inactive) | > 10 µM (inactive) | > 10 µM (inactive) | > 10 µM (inactive) | > 10 µM (inactive) | > 10 µM (inactive) | > 10 µM (inactive) | > 10 µM (inactive) | > 10 µM (inactive) | > 10 µM (inactive)
